Assay results reported in ChEMBL document CHEMBL1158728, “Makaluvic acids from the South African latrunculid sponge Strongylodesma aliwaliensis” (J Nat Prod, 2005).

Test: Cytotoxicity against human WHCO1 cells after 48 hrs by MTT assay
Format: functional, cell-based
Conditions: WHCO1, 48 h

O=C1NCCc2cn([C@@H]3O[C@H](CO)[C@@H](O)[C@H]3O)c(C(=O)O)c21 showed an IC50 of 61 µM.

Compound NC1=CC2=NCCc3cn([C@@H]4O[C@H](CO)[C@@H](O)[C@H]4O)c(c32)C1=O has an IC50 of 1.6 µM.

Work on O=C1C=C2NCCc3cn([C@@H]4O[C@H](CO)[C@@H](O)[C@H]4O)c(c32)C1=O yielded an IC50 of 38 µM.

Work on O=C1C=C2NCCc3c[nH]c(c32)C1=O [DAMIRONE C] yielded an IC50 of 56 µM.

In the case of O=C1C(N/C=C/c2ccc(O)cc2)=CC2=NCCc3c[nH]c1c32 [MAKALUVAMINE M], the IC50 is reported as 0.7 µM.

Compound O=C(O)c1[nH]cc2c1C(=O)NCC2 [MAKALUVIC ACID C] has an IC50 greater than 150 µM.
